In patent publication US10538515B2, “Isatin-derived compounds, use of the compounds for the treatment of AIDS and method of treatment using these compounds” (FUNDAÇÄO OSWALDO CRUZ, priority 2016, dated 2020):
Where two headings read alike, the source gives them in different places.

Columns and labels:
[1] = target: T1, recombinant HIV-1 reverse transcriptase (RTHXB2) (Human immunodeficiency virus type 1 group M subtype B, UniProt P04585); assay: Reverse transcriptase inhibition activity (RDDP, [3H]dTTP incorporation); format: biochemical; conditions: for IC50: 50% inhibitory concentration, mean of three independent experiments, read-out: CI50 (the source's name)
T1 construct: The enzyme is derived from a polyprotein encoded by the virus, processed by the viral protease
Experimental: Reverse Transcriptase Inhibition Activity
The RDDP activity was determined in 50 mM Tris HCl (pH 7.8), 6 mM MgCl2, 1 mM dithiothreitol, 50 mM KCl, 5 μM dTTP, […] poly (rA) oligo (dT) template primer (Pharmacia, Piscataway, N.J., USA) and 3 U of enzyme (one unit is the enzyme concentration incorporating dTTP […] per minute per mg of enzyme at 37° C. under standard conditions). The reaction isotope dilutions were prepared at 2 μCi of [3H] dTTP (49 Ci/mmol)/2,7μ dTTP. The reaction was initiated at 37° C., incubated for 30 minutes and halted with 0.5M EDTA. The precipitate was collected on Whatman 81 filter paper and washed with 0.1 M sodium phosphate. The incorporated nucleotides were measured by liquid scintillation. The 50% inhibitory concentration (Ciso) was determined by linear regression analysis of the dose-response curve obtained from experimental data. The polymerization reaction was conducted in the presence and absence of test substances, as well as the presence and absence of standards.
All tests were conducted on three separate occasions. At least three independent experiments were performed and triplicates were run for each concentration.

[2] = test system: Suptl cells (T-lymphocyte cell line); assay: Cytotoxicity assay (MTT); format: cell-based
Experimental: The T-lymphocyte cell line (Suptl) was cultured in an RPMI 1640 medium (GIBICO). The cultures were supplemented with 10% Fetal Bovine Serum (SFB; HyClone, Logan, Utah, USA), 100 U/mL of penicillin and […] of streptomycin, and incubated at 37° C., in an atmosphere of 5% CO2. Virus stocks were prepared using the methodology described by Souza and Denizot (SOUZA, T. M. L; RODRIGUES, D. Q.; […], V. F.; MARQUES, I. P.; DE SOUZA, M. C. B. V.; […], I. C. P. P.; BOU-HABIB, D. C; FONTES, C. F. L. Characterization of HIV-1 enzyme reverse transcriptase inhibition by the compound 6-chloro-1.4-dihydro-4-oxo-1-(β-D-ribofuranosyl) quinoline-3-carboxylic acid through kinetic and in silico studies. Current HIV Research, v. 7, No 3, page 327-335, 2009. DENIZOT, F.; LANG, R. Rapid colorimetric assay for cell growth and survival. Modifications to the tetrazolium dye procedure giving improved sensitivity and reliability. The Journal of Immunological Methods, v. 89, No 2, page 271-277, 1986).
. They were then run through an MTT assay (3-(4,5-dimethylazol-2-yl)-2.5-diphenyl tetrazolium bromide) in order to analyze cell induction infeasibility. MTT is a colorimetric method that measures mitochondrial dehydrogenase activity based on the ability of live cells to reduce 3-(4,5-methylazol-2-yl)-2.5-diphenyl tetrazolium bromide salt in the product. A […] solution of 3-(4,5-dimethylthiazol-2-yl)-2.5-diphenyl tetrazolium bromide (1 mg/ml) (MTT, Sigma) was thus added to the cells, kept in Dulbecco's Modified Eagle's medium (DMEM) without serum. The MTT was removed after three hours and, after adding […] of isopropanol acid (0.04N HCl in isopropanol), the optical density (OD) was determined using a wavelength range of 570 to 690 nm, according to KUO et al (KUO, Y. C; CHEN, C. C; TSA, W. J.; HO, Y. H. Regulation of type 1 herpes simplex virus replication in vero cells by Psychotriaserpens: relationship to gene expression, DNA replication, and protein synthesis. Antiviral Research, v. 51, No 2, pages 95 to 109, 2001). The dye coloring has different optical densities, depending on mitochondrial metabolism after treating cells with different concentrations of the new derivatives or the absence thereof. The 50% cytotoxic concentration (CC50) was calculated through linear regression analysis from the dose-response curve obtained from experimental data.

Row | SMILES | IC50 [1] [µM] | CC50 ([2]; 50% cytotoxic concentration, 72 hours, MTT, read-out: CC50) [µM] | IS ([1]; CC50 / CI50) | CC50 [2] [µM]
1 | CCOP(=O)(Cn1cc(CN2C(=O)C(O)(C#CC3CC3)c3cc(Cl)ccc32)nn1)OCC (centres unmarked) [IIf, diethyl ((4-((5-chloro-3-(cyclopropylethanol)-3-hydroxy-2-oxoindolin-1-yl)methyl)-1H-1,2,3-triazole-1-yl)methyl) phosphonate] | 3.2 | > 100 |  | 
2 | C[C@H](Cn1cnc2c(N)ncnc21)OCP(=O)(O)O [Tenofovir, reference compound] | 1.2 |  | 567 | 680
